Reference: ChEMBL document CHEMBL1153587, “Design, synthesis and biological evaluation of novel nitrogen and sulfur containing hetero-1,4-naphthoquinones as potent antifungal and antibacterial agents” (2009)
Converted amounts (≈) assume the structure as drawn.

Experiments:
Assay type in all cases: functional
Escherichia coli = experiment: Antibacterial activity against Escherichia coli after 24 hrs by broth microdilution method
Klebsiella pneumoniae = experiment: Antibacterial activity against Klebsiella pneumoniae ATCC 27736 after 24 hrs by broth microdilution method
Staphylococcus aureus = experiment: Antibacterial activity against Staphylococcus aureus ATCC 25923 after 24 hrs by broth microdilution method
Candida parapsilosis = experiment: Antifungal activity against Candida parapsilosis ATCC 22019 after 48 hrs by broth microdilution method; details: Lodderomyces parapsilosis, ATCC 22019, 48 h
Cryptococcus neoformans = experiment: Antifungal activity against Cryptococcus neoformans after 72 hrs by broth microdilution method
Aspergillus fumigatus = experiment: Antifungal activity against Aspergillus fumigatus after 72 hrs by broth microdilution method
Candida albicans = experiment: Antifungal activity against Candida albicans after 48 hrs by broth microdilution method
[1] = test system: Trichophyton mentagrophytes; experiment: Antifungal activity against sTrichophyton mentagrophytes after 96 hrs by broth microdilution method
Sporothrix schenckii = experiment: Antifungal activity against Sporothrix schenckii after 72 hrs by broth microdilution method

Compound	MIC (Escherichia coli)	MIC (Klebsiella pneumoniae)	MIC (Staphylococcus aureus)	MIC (Klebsiella pneumoniae; ATCC 27736, 24 h)	MIC (Staphylococcus aureus; ATCC 25923, 24 h)	MIC (Candida parapsilosis)	MIC (Cryptococcus neoformans)	MIC (Aspergillus fumigatus)	MIC (Candida albicans)	MIC [1]	MIC (Sporothrix schenckii)
GENTAMICIN	0.18 µg/mL	0.39 µg/mL	0.78 µg/mL								
COc1cccc(SC2=C(N(c3ccccc3)c3ccccc3)C(=O)c3ccccc3C2=O)c1	> 50 µg/mL			50 µg/mL (≈ 108 µM)	25 µg/mL (≈ 53.9 µM)						
O=C1C(Cl)=C(Sc2ccccc2)C(=O)c2ccccc21	12.5 µg/mL (≈ 41.6 µM)			> 50 µg/mL	25 µg/mL (≈ 83.1 µM)						
NC1=C(Sc2ccccc2)C(=O)c2ccccc2C1=O	> 50 µg/mL			1.56 µg/mL (≈ 5.54 µM)	6.25 µg/mL (≈ 22.2 µM)	12.5 µg/mL (≈ 44.4 µM)	25 µg/mL (≈ 88.9 µM)	6.25 µg/mL (≈ 22.2 µM)	12.5 µg/mL (≈ 44.4 µM)	12.5 µg/mL (≈ 44.4 µM)	25 µg/mL (≈ 88.9 µM)
O=C1C(Cl)=C(NCCN2C(=O)c3ccccc3C2=O)C(=O)c2ccccc21	6.25 µg/mL (≈ 16.4 µM)			50 µg/mL (≈ 131 µM)	6.25 µg/mL (≈ 16.4 µM)						
O=c1c2[nH]c3ccccc3sc=2c(=O)c2ccccc12	25 µg/mL (≈ 89.5 µM)			> 50 µg/mL	25 µg/mL (≈ 89.5 µM)						
N#Cc1ccccc1NC1=C(Br)C(=O)c2ccccc2C1=O						12.5 µg/mL (≈ 35.4 µM)	12.5 µg/mL (≈ 35.4 µM)	> 50 µg/mL	25 µg/mL (≈ 70.8 µM)	6.25 µg/mL (≈ 17.7 µM)	> 50 µg/mL
O=C1C(Nc2ccc(O)cc2)=C(Sc2ccccc2)C(=O)c2ccccc21	> 50 µg/mL			> 50 µg/mL	50 µg/mL (≈ 134 µM)						
N#Cc1ccccc1NC1=C(Cl)C(=O)c2ccccc2C1=O						25 µg/mL (≈ 81 µM)	50 µg/mL (≈ 162 µM)	> 50 µg/mL	50 µg/mL (≈ 162 µM)	> 50 µg/mL	> 50 µg/mL
C[C@@H]1[C@H](O)[C@@H](C)/C=C/C=C/C=C/C=C/C=C/C=C/C=C/[C@H](O[C@@H]2O[C@H](C)[C@@H](O)[C@H](N)[C@@H]2O)C[C@@H]2O[C@](O)(C[C@@H](O)C[C@@H](O)[C@H](O)CC[C@@H](O)C[C@@H](O)CC(=O)O[C@H]1C)C[C@H](O)[C@H]2C(=O)O [AMPHOTERICIN B]							0.78 µg/mL (≈ 0.844 µM)		0.39 µg/mL (≈ 0.422 µM)	1.56 µg/mL (≈ 1.69 µM)	
COc1cccc(SC2=C(Cl)C(=O)c3ccccc3C2=O)c1	12.5 µg/mL (≈ 37.8 µM)			> 50 µg/mL	25 µg/mL (≈ 75.6 µM)						
Nc1c2ccccc2nc2c(=O)c3ccccc3c(=O)c=2n1-c1ccccc1						25 µg/mL (≈ 68.4 µM)	25 µg/mL (≈ 68.4 µM)	> 50 µg/mL	25 µg/mL (≈ 68.4 µM)	12.5 µg/mL (≈ 34.2 µM)	> 50 µg/mL
O=C1C(Nc2ccccc2)=C(Sc2ccccc2)C(=O)c2ccccc21	> 50 µg/mL			25 µg/mL (≈ 69.9 µM)	> 50 µg/mL						
NC[C@H]1O[C@H](O[C@H]2[C@H](O)[C@@H](O[C@H]3O[C@H](CO)[C@@H](O)[C@H](N)[C@H]3O)[C@H](N)C[C@@H]2N)[C@H](N)C[C@@H]1O [TOBRAMYCIN]	0.5 µg/mL (≈ 1.07 µM)			1 µg/mL (≈ 2.14 µM)	0.25 µg/mL (≈ 0.535 µM)						
NC[C@H]1O[C@H](O[C@H]2[C@H](O)[C@@H](O[C@H]3O[C@H](CO)[C@@H](O)[C@H](N)[C@H]3O)[C@H](N)C[C@@H]2N)[C@H](O)[C@@H](O)[C@@H]1O [KANAMYCIN]	16 µg/mL (≈ 33 µM)			32 µg/mL (≈ 66 µM)	2 µg/mL (≈ 4.13 µM)						
O=C1C(Cl)=C(Nc2ccc(O)cc2)C(=O)c2ccccc21	> 50 µg/mL			6.25 µg/mL (≈ 20.9 µM)	6.25 µg/mL (≈ 20.9 µM)	6.25 µg/mL (≈ 20.9 µM)	0.78 µg/mL (≈ 2.6 µM)	3.12 µg/mL (≈ 10.4 µM)	1.56 µg/mL (≈ 5.2 µM)	1.56 µg/mL (≈ 5.2 µM)	1.56 µg/mL (≈ 5.2 µM)
